Measured values reported in US10029986B2, “Alkynyl pyridine-substituted amide compound and pesticide” (NISSAN CHEMICAL INDUSTRIES, LTD., priority 2014, dated 2018).

Key:
Asperaillus niger = assay: Test on the antifungal activity against Asperaillus niger; format: cell-based; details: 48 h; test solution B 100 ppm, 10 μl per well, 96 well plate, 25° C. dark, 2 days after treatment; read-out: efficacy (flora area ratio relative to non-treated well)
Method: Compounds of the present invention were dissolved in dimethyl sulfoxide to prepare 1 wt % solutions. Then, distilled water was added to dilute the solutions to the prescribed concentration (100 ppm), and the obtained solutions were used in the following the Test Examples 9 to 12. 60 μl of a potato dextrose 1% agar medium was added to each well of a 96 well plate, and 30 μl of sterilized water containing spores of Asperaillus niger (10 spores/3 μl) was added to each well. Further, 10 μl per well of test solution B of the compounds of the present invention was added, and the plate was left at rest at 25° C. under dark conditions. 2 days after treatment, the flora area ratio (%) was determined to calculate the efficacy (%) relative to the non-treated well in accordance with the following formula. Efficacy (%)=[1−(flora area ratio in treated plot/flora area ratio in non-treated well)]×100

Botrytis cinerea = assay: Test on the preventive effect against cucumber gray mold (mycelium inoculation); format: in vivo; details: 48 h, test solution A 500 ppm, 5 ml per pot, cucumber cotyledon, agar block inoculation, 2 days at 20° C.
Method: Compounds of the present invention were dissolved in a solvent for emulsion (a mixture of Sorpol (registered trademark) 3005XL (manufactured by Toho Chemical Industry Co., Ltd.): N-methylpyrrolidone: Solvesso (registered trademark) 200 (manufactured by ExxonMobil Chemical) in a ratio of 1:5:2) to prepare 20 wt % emulsifiable concentrates. Then, distilled water was added to dilute the emulsifiable concentrates to the prescribed concentration (500 ppm), and the obtained solutions were used in the following the Test Examples 1 to 8. Cucumber (varieties: Sagami Hanjiro) was seeded in 90 cm^3 plastic pot, and at the cotyledon stage, 5 ml per pot of test solution A of the compounds of the present invention was applied. On the next day, the pot was transferred in a plastic container, and an agar blocks (diameter: 5 mm) containing Botrytis cinerea which was preliminarily cultivated in a PDA medium was inoculated on the cotyledon of the cucumber treated with the solution. After the inoculation, the plastic container was covered with a plastic sheet, then placed at 20° C. and humidified for 2 days. Thus the proportion of the formed lesion in the inoculated leaves were measured to calculate the control value in accordance with the same formula as in the Test Example 1. The test was carried out in duplicate.

[1] = test system: Blumeria graminis f. sp. tritici; assay: Test on the preventive effect against wheat powdery mildew; format: in vivo; details: 168 h, test solution A 500 ppm, 5 ml per pot, wheat 1.3-leaf stage, 7 days after inoculation
Method: Compounds of the present invention were dissolved in a solvent for emulsion (a mixture of Sorpol (registered trademark) 3005XL (manufactured by Toho Chemical Industry Co., Ltd.): N-methylpyrrolidone: Solvesso (registered trademark) 200 (manufactured by ExxonMobil Chemical) in a ratio of 1:5:2) to prepare 20 wt % emulsifiable concentrates. Then, distilled water was added to dilute the emulsifiable concentrates to the prescribed concentration (500 ppm), and the obtained solutions were used in the following the Test Examples 1 to 8. Wheat (varieties: Norin 61) was seeded in 90 cm^3 plastic pot, and at the 1.3-leaf stage, 5 ml per pot of test solution A of the compounds of the present invention were applied. One day after treatment, the pot was placed in an air-conditioned greenhouse (20° C.), and conidium of Blumeria graminis f. sp. tritici was inoculated to the wheat. 7 days after, the proportion of the formed lesion in the inoculated leaves were measured to calculate the control value in accordance with the same formula as in the Test Example 1. The test was carried out in duplicate.

[2] = test system: Erysiphe polygoni (synonym: Erysiphe betae); assay: Test on the preventive effect against cucumber powdery mildew; format: in vivo; details: 216 h, test solution A 500 ppm, 5 ml per pot sprayed, cucumber cotyledon stage, 9 days after inoculation
In short: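 Cucumber (Sagami Hanjiro) at cotyledon stage sprayed with 500 ppm compound (diluted from 20 wt% emulsifiable concentrate), air-dried, then inoculated with Erysiphe polygoni conidia. Kept 9 days at 20 °C in greenhouse; lesion area ratio scored in duplicate, control value = [1−(treated/untreated lesion ratio)]×100.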

[3] = test system: Barber pole worm (Haemonchus contortus); assay: Insecticidal test against Barber pole worm (eggs, 96 well plate); format: in vivo; details: 96 h, test solution B 100 ppm, 10 μl per well, 25° C. dark, 4 days after treatment, read-out: efficacy (unhatched eggs and inactive larvae relative to non-treated)
Method: Compounds of the present invention were dissolved in dimethyl sulfoxide to prepare 1 wt % solutions. Then, distilled water was added to dilute the solutions to the prescribed concentration (100 ppm), and the obtained solutions were used in the following the Test Examples 9 to 12. 60 μl of a potato dextrose 1% agar medium was added to each well of a 96 well plate, and 30 μl of sterilized water containing eggs of Barber pole worm (Haemonchus contortus) (10 eggs/3 μl) was added to each well. Further, 10 μl per well of test solution B of the compounds of the present invention was added, and the plate was left at rest at 25° C. under dark conditions.

Sclerotinia sclerotiorum = assay: Test on the preventive effect against cucumber stem rot; format: in vivo; details: 48 h, test solution A 500 ppm, 5 ml per pot, agar block inoculation, 2 days at 20° C.
Method: Compounds of the present invention were dissolved in a solvent for emulsion (a mixture of Sorpol (registered trademark) 3005XL (manufactured by Toho Chemical Industry Co., Ltd.): N-methylpyrrolidone: Solvesso (registered trademark) 200 (manufactured by ExxonMobil Chemical) in a ratio of 1:5:2) to prepare 20 wt % emulsifiable concentrates. Then, distilled water was added to dilute the emulsifiable concentrates to the prescribed concentration (500 ppm), and the obtained solutions were used in the following the Test Examples 1 to 8. Cucumber (varieties: Sagami Hanjiro) was seeded in 90 cm^3 plastic pot, and at the cotyledon stage, 5 ml per pot of test solution A of the compounds of the present invention was applied. After drying in air, the pot was transferred in a plastic container, and an agar blocks (diameter: 5 mm) containing Sclerotinia sclerotiorum which was preliminarily cultivated in a PDA medium was inoculated to the seed leaves of the cucumber treated with the solution. After the inoculation, the plastic container was covered with a plastic sheet, and placed at 20° C. and humidified for 2 days, thus the proportion of the formed lesion in the inoculated leaves were measured to calculate the control value in accordance with the same formula as in the Test Example 1. The test was carried out in duplicate.

SMILES | inhibition of growth at 100 µg/mL (Asperaillus niger) [%] | pest or weed control at 500 µg/mL (Botrytis cinerea) [%] | pest or weed control at 500 µg/mL [1] [%] | pest or weed control at 500 µg/mL [2] [%] | pest or weed control at 100 µg/mL [3] [%] | pest or weed control at 500 µg/mL (Sclerotinia sclerotiorum) [%]
CSC(CNC(=O)c1ccccc1C(F)(F)F)c1ncc(C#CC2CC2)cc1Cl (centres unmarked) [1-021] | ≥ 50 | ≥ 70 | ≥ 70 | ≥ 70 | ≥ 50 | ≥ 70
CC(C)(C)C#Cc1cnc(CCNC(=O)c2cccnc2C(F)F)c(Cl)c1 [3-002] | ≥ 50 | ≥ 70 | ≥ 70 | ≥ 70 | ≥ 50 | ≥ 70
COC(c1ncc(C#CC2CC2)cc1Cl)C(C)NC(=O)c1nccnc1C(F)(F)F (centres unmarked) [4-004] | – | ≥ 70 | ≥ 70 | ≥ 70 | ≥ 50 | ≥ 70
CC(Cc1ncc(C#Cc2ccccc2)cc1Cl)NC(=O)c1cn(C)nc1C(F)F (centres unmarked) [8-027] | – | ≥ 70 | ≥ 70 | ≥ 70 | – | ≥ 70
CC#Cc1cnc(CCNC(=O)c2ccccc2C(F)(F)F)c(Cl)c1 [1-001, N-[2-[3-chloro-5-(1-propynyl)pyridin-2-yl]ethyl]-2-(trifluoromethyl)benzamide] | – | ≥ 70 | ≥ 70 | ≥ 70 | ≥ 50 | ≥ 70
Cn1cc(C(=O)NCC2(c3ncc(C#CC4CC4)cc3Cl)CC2)c(C(F)F)n1 [8-018, N-[[1-[3-chloro-5-(cyclopropylethynyl)pyridin-2-yl]cyclopropyl]methyl]-3-difluoromethyl-1-methyl-1H-pyrazole-4-carboxamide] | – | ≥ 70 | ≥ 70 | ≥ 70 | ≥ 50 | ≥ 70
O=C(NCC(c1ncc(C#CC2CC2)cc1Cl)C1CC1)c1ccccc1C(F)(F)F (centres unmarked) [1-009] | ≥ 50 | – | ≥ 70 | ≥ 70 | ≥ 50 | ≥ 70
CC(NC(=O)c1ccccc1C(F)(F)F)C(OCc1ccccc1)c1ncc(C#CC2CC2)cc1Cl (centres unmarked) [1-031, N-[2-benzyloxy-2-[3-chloro-5-(cyclopropylethynyl)pyridin-2-yl]-1-methylethyl]-2-(trifluoromethyl)benzamide] | – | ≥ 70 | ≥ 70 | ≥ 70 | – | ≥ 70
COC(=O)C(CNC(=O)c1cn(C)nc1C(F)F)c1ncc(C#CC2CC2)cc1Cl (centres unmarked) [8-022, 2-[3-chloro-5-(cyclopropylethynyl)pyridin-2-yl]-3-(3-difluoromethyl-1-methyl-1H-pyrazole-4-carboxamide)propionic acid methyl ester] | – | ≥ 70 | ≥ 70 | ≥ 70 | – | ≥ 70
